Laboratory results published in ChEMBL document CHEMBL1142501, “PASS-assisted exploration of antidepressant activity of 1,3,4-trisubstituted-beta-lactam derivatives” (Bioorg Med Chem Lett, 2008).
Activity calls are given as the source filed them. The rule behind the calls is not given here.

Key:
Assay type in all cases: functional, organism-based
Mus musculus [1] = experiment: Antidepressant activity against dark-induced depression in Albino Swiss mouse assessed as decrease in immobility period at 15 mg/kg, ip once daily for 4 days and 30 mins before test on day 5 by forced swimming test; parameters: dose 15 mg/kg
Mus musculus [2] = experiment: Antidepressant activity against dark-induced depression in Albino Swiss mouse assessed as decrease in immobility period at 30 mg/kg, ip once daily for 4 days and 30 mins before test on day 5 by forced swimming test; parameters: dose 30 mg/kg
Mus musculus [3] = experiment: Antidepressant activity against dark-induced depression in Albino Swiss mouse assessed as increase in brain serotonin level at 15 mg/kg, ip once daily for 4 days and 30 mins before test on day 5; parameters: dose 15 mg/kg
Mus musculus [4] = experiment: Antidepressant activity against dark-induced depression in Albino Swiss mouse assessed as increase in brain serotonin level at 20 mg/kg, ip once daily for 4 days and 30 mins before test on day 5; parameters: dose 20 mg/kg
Mus musculus [5] = experiment: Antidepressant activity against dark-induced depression in Albino Swiss mouse assessed as decrease in immobility period at 20 mg/kg, ip once daily for 4 days and 30 mins before test on day 5 by forced swimming test; parameters: dose 20 mg/kg

Compound | Activity (Mus musculus [1]) | Activity (Mus musculus [2]) | Activity (Mus musculus [3]) | Activity (Mus musculus [4]) | Activity (Mus musculus [5])
O=C1C=CC(=O)[C@H]2CC=C[C@@H]([C@H]3C(=O)N(C4CCCCC4)[C@H]3c3ccccc3)[C@@H]12 | Active | Active | Active |  | 
COc1ccc([C@@H]2[C@@H]([C@@H]3C=CC[C@@H]4C(=O)N(c5ccccc5)C(=O)[C@H]34)C(=O)N2c2ccccc2)cc1 | Active | Active | Active | Active | 
O=C1OC(=O)[C@H]2CC=C[C@@H]([C@H]3C(=O)N(c4ccccc4)[C@@H]3c3ccccc3)[C@@H]12 | Active | Active | Active |  | 
Cc1ccc(N2C(=O)[C@@H]3[C@H]([C@H]4C(=O)N(C5CCCCC5)[C@H]4c4ccc(Cl)cc4)C=CC[C@@H]3C2=O)cc1 | inactive | inactive | inactive |  | 
CNCCC(Oc1ccc(C(F)(F)F)cc1)c1ccccc1 (stereo not given) |  |  |  | Active | Active
